# Legend:
# [1] = system: HCV genotype 3a NS5A within the 1b-replicon; experiment: Luciferase replicon assay, NS5A-intergenotypic stable cell line genotype 3a; assay type: cell-based; conditions: Hepatitis C virus, read-out: EC50 3a
# From the text: (§1) The nucleotide sequences of the NS5A region of genotype 2a (GenBank Accession # AB047639), genotype 3a (GenBank Accession #D17763), and genotype 4a (GenBank Accession# DQ418788) were synthesized by an outside vendor. The NS5A region of each of these genotypes included the first 11 amino acids of the protease recognition sequence of genotype 1b, as well as the last 10 amino acids of genotype 1b. The NS5A gene cassettes were excised with site specific restriction endonucleases and ligated into a ZS11-luciferase genotype 1b backbone (backbone contains the genotype 1b NS3 protease, NS4a, NS4b, and NS5b coding regions) with similarly cut restriction enzyme sites. Thus, the newly constructed plasmid contains a genotype 2a-, 3a- or 4a-specific NS5A gene within the 1b-replicon.
# (§2) These new intergenotypic plasmids were used to establish stable cell lines. RNA was generated from the NS5A intergenotypic plasmids and used in conjunction with a lipofectin reagent to transfect a cured Huh7 cell line. Transfected cells were selected for with G418. After selection has occurred the stable cell lines were propagated, tested for luciferase activity, and RT-PCR with genotype specific primers (either 1a, 2a, 3a, or 4a). Stable cell lines containing the intergenotypic replicon were then fully sequenced and analyzed for proper expression of NS3, NS5A and NS5B proteins.
# (§3) Drug titration analysis was performed using the luciferase replicon assay described herein.
# The HCV luciferase replicon assay measures the ability of a test compound to inhibit HCV replication in cell culture after 3 days of treatment in a human hepatoma cell line (Huh-7) bearing an HCV replicon containing a luciferase-neomycin phosphotransferase fusion gene. The inhibition of HCV replication was measured by quantification of luciferase protein expression. Briefly, Huh-7 cells containing either the HCV genotype 1a H77 strain or genotype 1b Con1 strain subgenomic luciferase replicon (H1a-luc or Zluc, respectively) were grown in DMEM containing glucose, L-glutamine and sodium pyruvate, 10% fetal bovine serum (FBS), 100 IU/mL penicillin, 100 μg/mL streptomycin, 2 mM GlutaMAX, non-essential amino acids and 0.25 (H1a-luc) or 0.5 (Zluc) mg/mL G418. GlutaMAX was obtained from Invitrogen, Corp.; all other media reagents were obtained from Mediatech, Inc. For dose-response testing, the cells were seeded in 96-well plates at 1×10^4 (H1a-luc) or 7.5×10^3 (Zluc) cells/well in a volume of 50 μL, and incubated at 37° C./5% CO2. Three hours after plating, 50 μL of ten 5-fold serial dilutions of compound were added, and cell cultures were incubated at 37° C./5% CO2 for 72 hours. In all cases, Huh-7 cells lacking the HCV replicon served as negative control. To assess luciferase expression, the media/compound was removed from the plates and ONE-glo Luciferase assay reagent (Promega) was added to each well. The assay plates were shaken for 3 minutes at room temperature and luciferase activity for each well was measured with a 1 sec read time on the Victor^3V multilabel counter using a 700 nm cut-off filter (Perkin Elmer). EC50 values were calculated from dose response curves from the resulting best-fit equations determined by Microsoft Excel and XLfit 4.1 software.
# HCV genotype 2a = experiment: Genotype 2a assay (NS5A-intergenotypic luciferase replicon / genotype 2a infectious virus assay); assay type: cell-based; conditions: Hepatitis C virus, read-out: EC50 2a
# From the text: as §1, §2, §3
# The genotype 2a infectious virus assay measures the ability of a test compound to inhibit HCV replication in cell culture after 5 days of treatment at the time of HCV genotype 2a virus infection of a permissive human hepatoma cell line (HPC cells). The inhibition of HCV replication was measured by quantification of HCV core protein expression by an enzyme-linked immunosorbent assay (ELISA). Briefly, HPC cells were grown in DMEM containing glucose, L-glutamine and sodium pyruvate, 10% FBS, 100 IU/mL penicillin, 100 μg/mL streptomycin, 2 mM GlutaMAX, and non-essential amino acids. GlutaMAX was obtained from Invitrogen, Corp.; all other media reagents were obtained from Mediatech, Inc. For dose-response testing, ninety-six-well plates were seeded with HPC cells at a density of 2.5×10^3 cells/well in a volume of 50 μL, and incubated at 37° C./5% CO2. Three hours after plating, 50 μL of ten 5-fold serial dilutions of compound and 100 μL of genotype 2a virus were added, and cell cultures were incubated at 37° C./5% CO2. In all cases, mock infected HPC cells served as negative control. At 16 hours post treatment and infection, the virus inoculum was removed by aspiration. The cultures were treated at the same final concentrations of drug diluted in media and incubated for 4 additional days at 37° C./5% CO2. Subsequently, the core ELISA was performed as follows. The plates were fixed for 90 seconds with acetone/methanol (1:1, v/v), washed three times with KPL wash solution (KPL, Inc.), blocked for 1 hr at room temperature with TNE buffer containing 10% FBS and then incubated for 2 hr at 37° C. with the anti-HCV core mouse monoclonal antibody (Thermo Scientific) diluted in the same buffer. After washing three times with KPL wash solution, the cells were incubated for 1 hr at 37° C. with an anti-mouse immunoglobulin G-peroxidase conjugate in TNE/10% FBS. After washing as described above, the reaction was developed with O-phenylenediamine (Invitrogen). The reaction was stopped after 30 min with 2 NH2SO4, and absorbance was read at 490 nm in a Victor^3V 1420 multilabel counter (Perkin Elmer) and EC50 concentrations were determined using Microsoft Excel and XLfit 4.1 software.
# The HCV luciferase replicon assay measures the ability of a test compound to inhibit HCV replication in cell culture after 3 days of treatment in a human hepatoma cell line (Huh-7) bearing an HCV replicon containing a luciferase-neomycin phosphotransferase fusion gene. […]
structure (smiles),measurement,setting,value
"COC(=O)N[C@H](C(=O)N1CCC[C@H]1c1ncc(-c2ccc(-c3csc4c(-c5cnc([C@@H]6CCCN6C(=O)[C@@H](NC(=O)OC)C(C)C)[nH]5)csc34)cc2)[nH]1)C(C)C [Compound A15, [(S)-1-((S)-2-{4-[4-(6-{2-[(S)-1-((S)-2-methoxycarbonylamino-3-methyl-butyryl)-pyrrolidin-2-yl]-3H-imidazol-4-yl}-thieno[3,2-b]thiophen-3-yl)-phenyl]-1H-imidazol-2-yl}-pyrrolidine-1-carbonyl)-2-methyl-propyl]-carbamic acid methyl ester]",EC50,[1],0.1 to 1 nM
same,EC50,HCV genotype 2a,< 0.1 nM

# Reference: patent publication US20120252721A1 (priority 2011, published 2012)
